Like-named read-outs stand apart in the source and are kept apart here.

One assay has as its system A549 NSCLC cells. Put plainly: MTT colorimetric in vitro growth inhibition assay. In kind it is cell-based, human. As to conditions: read-out: IC50 (nM) A549. An excerpt: (§1) The histological types and origins of the eight human cancer cell lines that were used for the MTT colorimetric assay are detailed in the legend of Table 1. Two mouse cancer cell lines were also used, the CT26.WT colon cancer cell line (ATCC code CRL-2638) and the B16F10 melanoma cell line (ATCC code CRL-6475). Both cell lines were obtained from the American Type Culture Collection (ATCC, Manassas, VA). A control cell line (human NHDF fibroblasts) was obtained from PromoCell (code c-12300; Heidelberg, Germany). The cell lines detailed in Figure 2A are a generous gift from the National Cancer Institute (NCI, Bethesda, USA) to Steven Karlish’s lab.
(§2) The cancer cells were cultured in RPMI (Lonza, Verviers, Belgium) medium supplemented with 10% heat-inactivated fetal calf serum (Lonza). All culture media were supplemented with 4 mM glutamine, 100 μg/mL gentamicin, 200 U/mL penicillin and 200 μg/mL streptomycin (Lonza). The NHDF fibroblasts were cultured in Lonza medium cc3132 KT FGM-2 BulletKit.
(§3) The overall growth level of the human cancer cell lines was determined using a colorimetric MTT (3-(4,5-dimethylthiazol-2yl)-2,5-diphenyltetrazolium bromide, Sigma, Belgium) assay as detailed previously. Briefly, this test measures the number of metabolically active (thus living) cells that are able to transform the yellow MTT into the blue formazan dye via a mitochondrial reduction involving succinate dehydrogenase. The amount of formazan obtained at the end of the experiment (measured by spectrophotometry) is directly proportional to the number of living cells. The determination of the optical density in the control compared to the treated cells therefore enables quantitative measurements of the effects of compounds on the growth of normal as well as cancer cells in vitro.
(§4) Each experimental condition was performed in six replicates.

Assay [1] deals with HT-29 colon cancer cells. Description: MTT colorimetric in vitro growth inhibition assay. In kind it is cell-based, human. As to conditions: read-out: IC50 (nM) HT-29.
Excerpt: as §1, §2, §3, §4

Another assay relates to Hs683 glioma cells. Put plainly: MTT colorimetric in vitro growth inhibition assay. In kind it is cell-based, human. As to conditions: read-out: IC50 (nM) Hs683.
Excerpt: as §1, §2, §3, §4

Assay [2] concerns MCF-7 breast cancer cells. Description: MTT colorimetric in vitro growth inhibition assay. The following applies: read-out: IC50 (nM) MCF-7. In kind it is cell-based, human.
Excerpt: as §1, §2, §3, §4

Assay [3] relates to PC-3 prostate cancer cells. Put plainly: MTT colorimetric in vitro growth inhibition assay. In kind it is cell-based, human. As to conditions: read-out: IC50 (nM) PC-3.
Excerpt: as §1, §2, §3, §4

For a further assay, the system named is SKMEL-28 melanoma cells. Description: MTT colorimetric in vitro growth inhibition assay. In kind it is cell-based, human. The following applies: read-out: IC50 (nM) SKMEL-28.
Excerpt: as §1, §2, §3, §4

For another assay, the system named is T98G glioma cells. Put plainly: MTT colorimetric in vitro growth inhibition assay. In kind it is cell-based, human. As to conditions: read-out: IC50 (nM) T98G.
Excerpt: as §1, §2, §3, §4

A further assay has as its system U373 glioma cells. Put plainly: MTT colorimetric in vitro growth inhibition assay. In kind it is cell-based, human. As to conditions: read-out: IC50 (nM) U373.
Excerpt: as §1, §2, §3, §4

Assay [4] deals with human cancer cells (A549, U373, Hs683, T98G, MCF-7, SKMEL-28, PC-3, HT-29). Description: MTT growth inhibition, mean over the eight human cancer cell lines. As to conditions: 72 h, read-out: IC50 (nM) Mean ± SEM. In kind it is cell-based.
Excerpt: as §1, §2, §3, §4

In another assay the target is T1, human α1β1 NaK complex (Homo sapiens, UniProt P05023).
T1 construct: made in house; host or cells: Pichia pastoris strain SMD1165 (membranes)
As to conditions: 3H-ouabain displacement; ref Katz et al. [5]; read-out: Affinity (nM) α-1 (KD ± SEM); cited from earlier work.

Another assay addresses T2, human α2β1 NaK complex (Homo sapiens, UniProt P50993).
T2 construct: made in house; host or cells: Pichia pastoris strain SMD1165 (membranes)
The following applies: ref Katz et al. [5], cited from earlier work; for Kd: 3H-ouabain displacement, read-out: Affinity (nM) α-2 (KD ± SEM); for Selectivity α-1 / α-2: ratio of KD α-1 to KD α-2.

A further assay deals with T3, human α3β1 NaK complex (Homo sapiens, UniProt P13637).
T3 construct: made in house; host or cells: Pichia pastoris strain SMD1165 (membranes)
The following applies: ref Katz et al. [5], cited from earlier work; for Kd: 3H-ouabain displacement, read-out: Affinity (nM) α-3 (KD ± SEM); for Selectivity α-1 / α-3: ratio of KD α-1 to KD α-3.

Assay [5] deals with HT-29 colon cancer cells. Put plainly: O2 consumption rate (MitoXpress assay). In kind it is cell-based, human. The following applies: compounds at their IC50 (MTT), 24 h. Here is the method:
For enzymatic determination of lactate production, confluent tumor cells were incubated with 10 mM glucose for 24 hours. Culture medium was then filtered through centrifugation columns with a 10 KDa cutoff, and L-lactate concentrations were determined on an ISCUSflex analyzer (CMA Microdialysis AB, Solna, Sweden). O2 consumption was determined using the MitoXpress assay according to the manufacturer’s instructions (LuxCell Biosciences, Cork, Ireland). Briefly, after adding the oxygen probe to tumor cells cultured for 24 hours in 96-well microplates with or without the tested compounds, the wells were sealed with mineral oil, and respiration was evaluated using time-resolved fluorescent plate readers. Under these conditions, O2 depletion was translated into an increase in probe phosphorescence signal, and the slope of this signal was used to derive the O2 consumption rate.
Figure 6 Metabolic profiling of human HT29 colon cancer cells treated with cardiotonic steroids. A: Extracellular lactate concentrations and B: O2 consumption rates in HT29 cancer cells treated with the indicated compounds at their IC50in vitro growth inhibitory concentrations (see Table 1). The data (mean ± SEM from triplicates) are expressed in mM lactate accumulated in the extracellular medium after 24 hours and arbitrary units derived from time-resolved fluorescent signal.min^-1.

Setting [6] is: Homo sapiens, A549, 72 h, three days of culture, * three independent experiments, ** one experiment, six replicates.
[7] abbreviates: Homo sapiens, HT-29, 72 h, three days of culture, * three independent experiments, ** one experiment, six replicates.
Where [8] appears, read: Homo sapiens, Hs 683, 72 h, three days of culture, * three independent experiments, ** one experiment, six replicates.
[9] abbreviates: Homo sapiens, MCF7, 72 h, three days of culture, * three independent experiments, ** one experiment, six replicates.
Setting [10] is: Homo sapiens, 72 h, three days of culture, * three independent experiments, ** one experiment, six replicates.
Where [11] appears, read: Homo sapiens, SK-MEL-28, 72 h, three days of culture, * three independent experiments, ** one experiment, six replicates.
Where [12] appears, read: Homo sapiens, T98G, 72 h, three days of culture, * three independent experiments, ** one experiment, six replicates.
Where [13] appears, read: Homo sapiens, U373 MG, 72 h, three days of culture, * three independent experiments, ** one experiment, six replicates.
The mark [14] stands for this setting: mean over eight human cancer cell lines, three days of culture.
The mark [15] stands for this setting: three days of culture, * three independent experiments, ** one experiment, six replicates.

Consider `C[C@@H]1O[C@@H](O[C@H]2CC[C@@]3(C)[C@@H](CC[C@@H]4[C@@H]3CC[C@]3(C)[C@@H](C5=CC(=O)OC5)CC[C@]43O)C2)[C@H](O)[C@H](O)[C@H]1O` [Uzarigenin-rhamnoside], for which the IC50 (usually the midpoint of a concentration-inhibition curve) turned out to be 45 nM in the assay with A549 NSCLC cells (setting [6]); 41 nM in the assay with HT-29 colon cancer cells [1] (setting [7]); 38 nM with Hs683 glioma cells (setting [8]); 469 nM in assay [2] (setting [9]); 77 nM in [3] (setting [10]); 222 nM with SKMEL-28 melanoma cells (setting [11]). For the same compound, the IC50 in the assay with T98G glioma cells (setting [12]) was 38 nM; in the assay with U373 glioma cells (setting [13]), 247 nM; in assay [4] (setting [14]), 147 ± 55 nM. For the same compound, the results for the equilibrium dissociation constant (Kd) at human α1β1 NaK complex, at human α2β1 NaK complex and on human α3β1 NaK complex were 90 ± 20 nM, 96 ± 7 nM and 122 ± 9 nM, respectively. Moreover, at human α2β1 NaK complex, the “Selectivity α-1 / α-2” value is on record as 0.9. Further, the “Selectivity α-1 / α-3” value at human α3β1 NaK complex was 0.7.

Consider `C[C@]12CC[C@H](O)C[C@H]1CC[C@@H]1[C@@H]2CC[C@]2(C)[C@@H](C3=CC(=O)OC3)[C@@H](O)C[C@]12O` [Gitoxigenin, gitoxigenin], for which the IC50 in the assay with A549 NSCLC cells (setting [6]) is 1720 nM; in the assay on HT-29 colon cancer cells [1] (setting [7]), 4400 nM; in the assay with Hs683 glioma cells (setting [8]), 653 nM; in assay [2] (setting [9]) it was 5190 nM; in assay [3] (setting [10]), 3960 nM; in the assay on SKMEL-28 melanoma cells (setting [11]), over 10000 nM. The half-inhibitory concentration (IC50) in the assay on T98G glioma cells (setting [12]) was 3590 nM; in the assay on U373 glioma cells (setting [13]), 4480 nM; in assay [4] (setting [14]) it was over 4250 nM. Further, the Kd (usually a measure of binding affinity in units of concentration) is 500 ± 90 nM at human α1β1 NaK complex, 1180 nM at human α2β1 NaK complex and 1050 nM on human α3β1 NaK complex. In addition, the “Selectivity α-1 / α-2” value on human α2β1 NaK complex is reported as 0.4. Moreover, the “Selectivity α-1 / α-3” value on human α3β1 NaK complex is on record as 0.5.

With `C[C@H]1O[C@@H](O[C@H]2[C@@H](O)C[C@H](O[C@H]3[C@@H](O)C[C@H](O[C@H]4CC[C@@]5(C)[C@H](CC[C@@H]6[C@@H]5CC[C@]5(C)[C@@H](C7=CC(=O)OC7)[C@@H](O)C[C@]65O)C4)O[C@@H]3C)O[C@@H]2C)C[C@H](O)[C@@H]1O` [Gitoxin], the half-maximal inhibitory concentration (IC50) with A549 NSCLC cells (Homo sapiens, A549, 72 h) worked out at 68 nM; in the assay on HT-29 colon cancer cells [1] (Homo sapiens, HT-29, 72 h) it was 352 nM; with Hs683 glioma cells (Homo sapiens, Hs 683, 72 h) it was 79 nM; in assay [2] (Homo sapiens, MCF7, 72 h) it was 828 nM; in assay [3] (Homo sapiens, 72 h), 361 nM; in the assay with SKMEL-28 melanoma cells (Homo sapiens, SK-MEL-28, 72 h), 679 nM. Also, the IC50 with T98G glioma cells (Homo sapiens, T98G, 72 h) turned out to be 174 nM; in the assay with U373 glioma cells (Homo sapiens, U373 MG, 72 h) it was 351 nM; in assay [4] (Homo sapiens), 362 ± 96 nM. For the same compound, the dissociation constant Kd on human α1β1 NaK complex is 123 ± 8 nM; at human α2β1 NaK complex, 85 ± 3 nM; at human α3β1 NaK complex it was 108 ± 17 nM. Besides, the “Selectivity α-1 / α-2” value on human α2β1 NaK complex is reported as 1.5. For the same compound, on human α3β1 NaK complex, the “Selectivity α-1 / α-3” value is on record as 1.1.

In the case of `C[C@H]1O[C@@H](O[C@H]2[C@@H](O)C[C@H](O[C@H]3[C@@H](O)C[C@H](O[C@H]4CC[C@@]5(C)[C@H](CC[C@@H]6[C@@H]5C[C@@H](O)[C@]5(C)[C@@H](C7=CC(=O)OC7)CC[C@]65O)C4)O[C@@H]3C)O[C@@H]2C)C[C@H](O)[C@@H]1O` [Digoxin, digoxin], the half-maximal inhibitory concentration (IC50) amounted to 60 ± 7 nM in the assay with A549 NSCLC cells (setting [6]); 208 ± 20 nM in the assay with HT-29 colon cancer cells [1] (setting [7]); 51 ± 6 nM in the assay with Hs683 glioma cells (setting [8]); 363 ± 35 nM in [2] (setting [9]); 215 ± 71 nM in [3] (setting [10]); 220 ± 26 nM in the assay with SKMEL-28 melanoma cells (setting [11]). The IC50 with T98G glioma cells (setting [12]) was determined as 274 ± 17 nM; with U373 glioma cells (setting [13]), 227 ± 42 nM; in assay [4] (setting [14]) it was 202 ± 37 nM. Further, the “O2 consumption rate (cell respiration)” value in the assay on HT-29 colon cancer cells [5] was “significantly reduced”.

As to `C[C@]12CC[C@H](O)C[C@@H]1CC[C@@H]1[C@@H]2CC[C@]2(C)[C@@H](C3=CC(=O)OC3)CC[C@]12O` [Uzarigenin], the concentration for half-maximal inhibition (IC50) with A549 NSCLC cells (setting [15]) is 3170 nM; with HT-29 colon cancer cells [1] (setting [15]) it was 6440 nM; with Hs683 glioma cells (setting [15]), 2250 nM; in assay [2] (setting [15]), over 10000 nM; in assay [3] (setting [15]) it was 6280 nM; in the assay on SKMEL-28 melanoma cells (setting [15]), over 10000 nM. For the same compound, the half-inhibitory concentration (IC50) in the assay on T98G glioma cells (setting [15]) worked out at 5140 nM; in the assay on U373 glioma cells (setting [15]), 7920 nM. Moreover, the equilibrium dissociation constant (Kd) on human α1β1 NaK complex was 1100 nM; on human α2β1 NaK complex, 883 ± 56 nM; at human α3β1 NaK complex it was 1280 nM. The “Selectivity α-1 / α-2” value at human α2β1 NaK complex is recorded as 1.3. Moreover, the “Selectivity α-1 / α-3” value at human α3β1 NaK complex is on record as 0.9.

Source of the values: PMC3722118, “Hellebrin and its aglycone form hellebrigenin display similar in vitro growth inhibitory effects in cancer cells and binding profiles to the alpha subunits of the Na^+/K^+-ATPase” (Molecular Cancer, 2013).
